Measured values published in patent publication US20210238173A1, “MITOGEN-ACTIVATED PROTEIN KINASE KINASE 7 INHIBITORS” (Yeda Research and Development Co. Ltd., priority 2018, published 2021).

What was measured:
PRKG2 (PKG2) = PRKG2 (PKG2) (Homo sapiens, UniProt Q13237); experiment: Kinome selectivity screen PRKG2; type: biochemical; conditions: 1 μM compound
Experimental: (§1) Kinome Selectivity Screen:
(§2) Kinase selectivity was assessed using the Life Technologies SelectScreen Kinase Profiling Service in a custom panel of 76 kinases selected to provide broad representative coverage of all kinase families. Kinase activity assays employed either the Z′-LYTE or Adapta assay technologies with ATP concentrations at or near the KM, ATP for each kinase and a test compound concentration of 1 μM.

EPHB1 = EPHB1 (Homo sapiens, UniProt P54762); experiment: Kinome selectivity screen EPHB1; type: biochemical; conditions: 1 μM compound
Experimental: as §1, §2

ROCK2 = ROCK2 (Homo sapiens, UniProt O75116); experiment: Kinome selectivity screen ROCK2; type: biochemical; conditions: 1 μM compound
Experimental: as §1, §2

primary mouse B-cells = experiment: Primary B-cell activation (CD86+ FACS) in response to LPS; type: cell-based; conditions: Mus musculus, B-cell, 10 μM, 2 hours pre-incubation
From the text: Compounds Block Activation of Primary Mouse B-Cells:
JNK is known to mediate activation of B-cells in response to lypopolysacharide (LPS) through the TLR4 signaling pathway as well as in response to B-cell receptor activation (stimulated e.g. with an anti-IgM antibody). Primary B-cells were isolated from the spleen of mice and assessed for their B-cell activation, via FACS analysis of CD86+ expression, in response to LPS in the presence or absence of the covalent MKK7 enzyme inhibitors presented herein, as well as a positive control JNK inhibitor, JNK-IN-8.
At 10 μM and 2 hours pre-incubation before stimulation, GO80 was able to inhibit 60% of the CD86+ response.

JNK activation = experiment: KTR reporter live cell imaging of JNK activation; type: cell-based; conditions: Homo sapiens; HEK293 cells; read-out: EC50 of test and control compounds
From the text: As an orthogonal assay for the ICW we used a KTR reporter cell line for JNK activation via live cell imaging.

AURKA (Aurora A) = AURKA (Aurora A) (Homo sapiens, UniProt O14965); experiment: Kinome selectivity screen AURKA; type: biochemical; conditions: 1 μM compound
Sequence of AURKA (Aurora A) (O14965 whole entry): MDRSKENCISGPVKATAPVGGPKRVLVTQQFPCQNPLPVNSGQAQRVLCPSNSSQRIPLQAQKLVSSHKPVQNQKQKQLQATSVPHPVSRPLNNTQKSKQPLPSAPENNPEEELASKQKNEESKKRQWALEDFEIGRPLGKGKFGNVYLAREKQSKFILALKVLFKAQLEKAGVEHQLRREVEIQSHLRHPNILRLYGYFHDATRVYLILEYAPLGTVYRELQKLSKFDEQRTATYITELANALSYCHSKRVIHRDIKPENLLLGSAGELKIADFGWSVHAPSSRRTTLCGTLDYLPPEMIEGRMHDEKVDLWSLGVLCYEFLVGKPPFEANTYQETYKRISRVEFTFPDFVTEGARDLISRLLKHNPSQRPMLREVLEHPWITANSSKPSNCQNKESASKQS

Sequence of PRKG2 (PKG2) (Q13237 whole entry): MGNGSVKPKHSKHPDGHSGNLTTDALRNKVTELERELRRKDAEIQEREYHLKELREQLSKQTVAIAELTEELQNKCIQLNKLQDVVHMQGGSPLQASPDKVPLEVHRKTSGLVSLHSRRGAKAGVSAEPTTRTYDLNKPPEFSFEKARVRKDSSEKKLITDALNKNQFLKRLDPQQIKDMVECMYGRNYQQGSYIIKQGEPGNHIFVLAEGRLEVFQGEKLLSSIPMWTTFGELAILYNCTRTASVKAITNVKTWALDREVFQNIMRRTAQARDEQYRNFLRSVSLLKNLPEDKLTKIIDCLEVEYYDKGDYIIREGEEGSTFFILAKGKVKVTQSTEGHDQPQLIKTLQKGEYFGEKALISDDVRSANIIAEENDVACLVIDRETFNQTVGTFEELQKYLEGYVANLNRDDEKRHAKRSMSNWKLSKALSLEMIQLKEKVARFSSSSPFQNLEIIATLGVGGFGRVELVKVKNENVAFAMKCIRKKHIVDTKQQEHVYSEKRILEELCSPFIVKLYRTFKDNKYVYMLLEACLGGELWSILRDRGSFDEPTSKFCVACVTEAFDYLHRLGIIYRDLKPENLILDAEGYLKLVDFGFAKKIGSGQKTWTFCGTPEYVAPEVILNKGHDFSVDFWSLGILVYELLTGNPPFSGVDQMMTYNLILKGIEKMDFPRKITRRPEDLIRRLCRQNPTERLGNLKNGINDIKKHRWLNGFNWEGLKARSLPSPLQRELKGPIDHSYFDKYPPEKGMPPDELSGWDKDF
Sequence of ROCK2 (O75116 whole entry): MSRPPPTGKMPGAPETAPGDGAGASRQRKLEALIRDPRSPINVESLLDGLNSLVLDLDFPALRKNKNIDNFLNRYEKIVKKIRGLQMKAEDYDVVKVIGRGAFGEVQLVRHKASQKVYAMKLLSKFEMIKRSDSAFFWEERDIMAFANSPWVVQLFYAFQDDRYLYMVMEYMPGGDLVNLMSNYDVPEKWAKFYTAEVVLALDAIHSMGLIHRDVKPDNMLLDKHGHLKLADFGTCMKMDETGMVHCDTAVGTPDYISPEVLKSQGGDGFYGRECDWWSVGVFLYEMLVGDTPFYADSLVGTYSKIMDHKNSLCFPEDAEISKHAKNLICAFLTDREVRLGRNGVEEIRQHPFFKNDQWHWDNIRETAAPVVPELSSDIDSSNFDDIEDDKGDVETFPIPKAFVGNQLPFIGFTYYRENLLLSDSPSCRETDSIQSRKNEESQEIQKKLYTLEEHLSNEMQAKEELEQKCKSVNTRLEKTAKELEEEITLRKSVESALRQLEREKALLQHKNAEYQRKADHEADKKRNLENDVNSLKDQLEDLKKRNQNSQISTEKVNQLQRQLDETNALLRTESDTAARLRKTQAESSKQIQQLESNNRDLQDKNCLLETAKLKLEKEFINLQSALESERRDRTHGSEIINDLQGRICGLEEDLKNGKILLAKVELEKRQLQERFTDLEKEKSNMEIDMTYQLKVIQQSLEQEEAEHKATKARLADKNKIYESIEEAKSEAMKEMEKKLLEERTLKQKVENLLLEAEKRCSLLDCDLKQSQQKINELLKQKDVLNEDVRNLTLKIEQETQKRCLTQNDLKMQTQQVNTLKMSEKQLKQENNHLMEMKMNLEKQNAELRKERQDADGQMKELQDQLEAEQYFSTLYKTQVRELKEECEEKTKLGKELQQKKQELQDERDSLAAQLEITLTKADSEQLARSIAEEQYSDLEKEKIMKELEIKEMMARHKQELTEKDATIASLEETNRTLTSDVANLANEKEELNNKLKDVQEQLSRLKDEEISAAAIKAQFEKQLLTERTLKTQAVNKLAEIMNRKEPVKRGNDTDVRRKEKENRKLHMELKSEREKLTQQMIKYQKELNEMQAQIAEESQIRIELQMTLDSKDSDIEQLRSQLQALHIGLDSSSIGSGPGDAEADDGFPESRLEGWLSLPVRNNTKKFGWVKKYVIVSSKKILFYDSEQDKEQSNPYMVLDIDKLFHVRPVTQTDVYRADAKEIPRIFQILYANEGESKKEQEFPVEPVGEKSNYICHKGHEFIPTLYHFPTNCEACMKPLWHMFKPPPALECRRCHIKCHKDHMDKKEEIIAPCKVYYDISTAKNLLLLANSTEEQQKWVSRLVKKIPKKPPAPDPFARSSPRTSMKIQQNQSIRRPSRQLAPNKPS
Sequence of EPHB1 (P54762 18-984): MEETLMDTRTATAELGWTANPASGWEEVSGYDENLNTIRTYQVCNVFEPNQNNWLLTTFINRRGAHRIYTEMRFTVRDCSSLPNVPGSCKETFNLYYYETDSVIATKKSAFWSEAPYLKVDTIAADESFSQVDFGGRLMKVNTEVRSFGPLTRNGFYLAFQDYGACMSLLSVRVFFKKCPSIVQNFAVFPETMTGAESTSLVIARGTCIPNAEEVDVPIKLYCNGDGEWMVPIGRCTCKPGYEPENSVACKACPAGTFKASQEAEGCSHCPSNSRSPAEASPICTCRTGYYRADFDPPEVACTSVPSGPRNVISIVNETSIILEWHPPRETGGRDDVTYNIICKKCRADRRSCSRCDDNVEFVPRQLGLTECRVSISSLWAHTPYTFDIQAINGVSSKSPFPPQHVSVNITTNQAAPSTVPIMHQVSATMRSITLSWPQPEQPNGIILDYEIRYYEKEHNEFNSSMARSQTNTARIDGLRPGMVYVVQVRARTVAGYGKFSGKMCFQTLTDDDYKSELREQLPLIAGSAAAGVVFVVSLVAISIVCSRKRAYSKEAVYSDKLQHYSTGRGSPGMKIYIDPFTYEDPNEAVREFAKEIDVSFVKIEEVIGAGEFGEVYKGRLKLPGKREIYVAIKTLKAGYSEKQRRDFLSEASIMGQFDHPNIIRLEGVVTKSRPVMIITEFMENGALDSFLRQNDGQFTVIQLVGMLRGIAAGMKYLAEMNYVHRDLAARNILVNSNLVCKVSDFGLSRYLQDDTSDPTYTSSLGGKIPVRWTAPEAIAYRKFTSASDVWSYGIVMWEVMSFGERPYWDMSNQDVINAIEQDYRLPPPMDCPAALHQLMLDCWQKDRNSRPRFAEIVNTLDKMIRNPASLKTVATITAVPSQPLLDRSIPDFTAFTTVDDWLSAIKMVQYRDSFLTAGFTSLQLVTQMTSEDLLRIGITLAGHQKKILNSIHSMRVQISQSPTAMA

**Q.** For `C=CC(=O)Nc1cccc(-c2n[nH]c3ccccc23)c1` [GO32], which inhibition at 1 µM (PRKG2 (PKG2)) is on record?
**A.** The inhibition at 1 µM was -2%.

**Q.** And the inhibition at 1 µM (EPHB1)?
**A.** Its inhibition at 1 µM is -4%.

**Q.** And the inhibition at 1 µM (ROCK2)?
**A.** Its inhibition at 1 µM is -2%.

**Q.** With `C=CC(=O)Nc1cccc(-c2n[nH]c3cc(C)ccc23)c1` [GO80] as the compound, how does the inhibition at 1 µM (PRKG2 (PKG2)) read?
**A.** Its inhibition at 1 µM is 0%.

**Q.** What about the inhibition at 1 µM (EPHB1) of the same compound?
**A.** The inhibition at 1 µM was -2%.

**Q.** And the inhibition at 10 µM (primary mouse B-cells)?
**A.** The inhibition at 10 µM was 60%.

**Q.** What about the EC50 (JNK activation) of the same compound?
**A.** Its EC50 is 3.3 µM.

**Q.** And the inhibition at 1 µM (AURKA (Aurora A))?
**A.** The inhibition at 1 µM was 4%.

**Q.** What about the inhibition at 1 µM (ROCK2) of the same compound?
**A.** The inhibition at 1 µM was -4%.
